Measured values reported in US9220264B2, “Multimeric forms of antimicrobial peptides” (Singapore Health Services Pte Ltd., priority 2008, dated 2015).
Values after ≈ are worked out from the molar mass of the structure shown. Like-named read-outs stand apart in the source and are kept apart here. Bridge positions count the residues as written; N and C are the ends. Peptide text beside a SMILES is read from it. I, II: the chains in the order shown.

Key:
[1] = system: Clinical Pseudomonas aeruginosa PAE 239 DM5790/07 Source: Wound; assay type: cell-based
Method: (§1) MICs was determined by broth macrodilution method modified from that described by the National Committee for Clinical Laboratory Standards (NCCL). The Mueller Hinton Broth (MHB) at ⅙ strength and without addition of Ca^2+ and Mg^2+ was used for dilution. Serial twofold dilutions of V2 dimer solution was prepared in MHB (⅙ strength) in test tubes. 1 ml of inoculum of test organisms in MHB (⅙ strength) was added to 1 ml of each dilution of V2 dimer to yield as final concentration of 10^4 to 10^5 colony forming units/ml in each test tube. The tubes were incubated at 35° C. for 16 to 20 hours. A positive control containing only the broth and organism, and a negative control tube containing only the broth were also incubated in parallel to the test samples. The above was repeated for each different test organism in separate experiments. The MIC of V2 dimer peptide for each clinical isolate or reference organism was read as the lowest concentration of peptide that inhibited visible growth of the test organism.
(§2) The MIC was also determined for other peptides and compared to gentamicin.

[2] = system: Methicillin-resistant staphylococcus aureus (MRSA) DM09808R Source: Eye; assay type: cell-based
Method: as §1, §2

[3] = system: Clinical Escherichia coli DB16027 Source: Blood; assay type: cell-based
Method: as §1, §2

[4] = system: Clinical Pseudomonas aeruginosa PAE 230 DR4877/07 Source: Sputum; assay type: cell-based
Method: as §1, §2

[5] = system: Clinical Pseudomonas aeruginosa PA2-PAE 239 DM5790/07 Source: Wound; assay type: cell-based; settings: USP Phosphate Buffer pH 7.2, 4 hrs, 35° C.
Method: (§3) The method for testing antimicrobial activity of antimicrobial peptides used an absolute killing procedure as described below. The bacterial cultures were grown on Trypticase Soy Agar (TSA) […], and the yeast culture on Sabouraud Dextrose Agar ([…] 35° C. for 16 hours. The organisms were harvested by centrifugation and washing twice in Phosphate buffer, pH 7.2 (United States Pharmacopeia, USP) at 20° C. The freeze-dried antimicrobial compound was dissolved in purified water and distributed into screw-capped plastic tubes at a concentration of 1,000 micro-grams (μg) per ml. These served as stock solutions and were kept at -20° C. On the day of conducting the test, one tube of the stock solution was defrosted and diluted in purified water to a concentration of 500 μg/ml. Thereafter, further dilutions were carried out in either USP Phosphate Buffer, pH 7.2 or other solutions (including but not limited to 10 mM sodium phosphate buffer, pH 7.4, 10 mM potassium buffer 7.2 or 155.2 mM NaCl), to the test concentrations required, normally ranging from 6.25 μg/ml to 50 μg/ml. Ten micro-liters (μl) of the test organism of standardised concentration was inoculated into one ml of the compound test solution of specific test concentration to provide a final count of between 1×10^5 cfu/ml and 1×10^6 cfu/ml as far as possible. The inoculated test solutions were than incubated at 35° C. for 4 hours. The incubation temperature and time may be varied as required. After incubation, the antimicrobial activity of the test solutions was inactivated by a 10-fold dilution in D/E Neutralising Broth (NB). Further dilutions were carried out in the NB, and plated out in TSA for bacteria, and SDA for yeast culture. The plates were incubated at 35° C. for 72 hours. The viable count of the survivor organisms was then determined. As an inoculum control, the test organism was inoculated, parallel to the Test, into the buffer used in the preparation of the test solutions instead and incubated under the same condition as the Test. The viable count of the inoculum control was determined as for the Test. […] The method described above was used for Examples 3-7 and in particular, the method for gentamicin in Example 6 is similar except that gentamicin was substituted for the antimicrobial compound.

[6] = system: Clinical Pseudomonas aeruginosa Ps-C 07DM023155 Source: Eye; assay type: cell-based; settings: USP Phosphate Buffer pH 7.2, 4 hrs, 35° C.
Method: as §3

[7] = system: Clinical Pseudomonas aeruginosa PA1-PAE 230 DR4877/07 Source: Sputum; assay type: cell-based; settings: USP Phosphate Buffer pH 7.2, 4 hrs, 35° C.
Method: as §3

[8] = system: Clinical Pseudomonas aeruginosa Ps-D 07DM023104 Source: Eye; assay type: cell-based; settings: USP Phosphate Buffer pH 7.2, 4 hrs, 35° C.
Method: as §3

[9] = system: Clinical Pseudomonas aeruginosa PA3-PAE 240 DU14476/07 Source: Urine; assay type: cell-based; settings: USP Phosphate Buffer pH 7.2, 4 hrs, 35° C.
Method: as §3

[10] = system: Clinical Pseudomonas aeruginosa PA4-PAE 249 DM15013 Source: Wound; assay type: cell-based; settings: USP Phosphate Buffer pH 7.2, 4 hrs, 35° C.
Method: as §3

Kp ATCC 10031 = assay type: cell-based, Klebsiella pneumoniae; settings: ATCC 10031, 24 h
Method: The minimum inhibitory concentration (MIC) was determined using a broth microdilution method. Different strains of bacterial cells were grown in Mueller Hinton Broth (MHB) overnight. 100 μl of adjusted inoculum in MHB was added to 100 μl of each dilution of peptide or antibiotics dissolved in the broth, so as to yield a final cell density of 10^5 to 10^6 cfu/ml in each well of a microtitre plate. Additional microtitre plates may be used as necessary, if more wells are required for the assay or duplicate plates are required. The microtitre plates were incubated at 35° C. for 24 h and the absorbance at 600 nm (OD600) was monitored every 30 minutes. […] A positive control well contained the broth and organisms (no peptides/antibiotics), and a negative control well contains only the broth. The MIC of peptides for each clinical isolate or reference organism was recorded as the lowest concentration of peptide/antibiotic that inhibited visible growth of the test organism. […]

[11] = system: Clinical Pseudomonas aeruginosa PAE 249 DM15013 Source: Wound; assay type: cell-based; settings: Clinical PAE 249 DM15013 Source: Wound
Method: as §1, §2

[12] = system: Escherichia coli ATCC25922; assay type: cell-based
Method: as §1, §2

[13] = system: Clinical Escherichia coli DU46381R Source: Urine; assay type: cell-based
Method: as §1, §2

[14] = system: Clinical Pseudomonas aeruginosa DM 023155 Source: Eye; assay type: cell-based; settings: Clinical DM 023155 Source: Eye
Method: as §1, §2

[15] = system: Clinical Pseudomonas aeruginosa PAE 240 DU14476/07 Source: Urine; assay type: cell-based; settings: Clinical PAE 240 DU14476/07 Source: Urine
Method: as §1, §2

[16] = system: Candida albicans ATCC10231; assay type: cell-based
Method: as §1, §2

[17] = system: Pseudomonas aeruginosa ATCC 27853; assay type: cell-based
Method: as §1, §2

[18] = system: Clinical Pseudomonas aeruginosa 07DM 023257 Source: Eye; assay type: cell-based; settings: Clinical 07DM 023257 Source: Eye
Method: as §1, §2

[19] = system: Fusarium solani ATCC 36031; assay type: cell-based
Method: as §1, §2

[20] = system: Clinical Pseudomonas aeruginosa 07DM023376 Source: Eye; assay type: cell-based; settings: Clinical 07DM023376 Source: Eye
Method: as §1, §2

[21] = system: Clinical Staphylococcus aureus DM4001 Source: Eye; assay type: cell-based
Method: as §1, §2

[22] = system: Clinical Pseudomonas aeruginosa DM 023104 Source: Eye; assay type: cell-based; settings: Clinical DM 023104 Source: Eye
Method: as §1, §2

[23] = system: Bacillus cereus ATCC 11778; assay type: cell-based
Method: as §1, §2

[24] = system: Clinical Cadida albicans DF2672R Source: Urine; assay type: cell-based, Candida albicans
Method: as §1, §2

[25] = system: human conjunctival epithelial cells; assay type: cell-based
Method: The results are from four independent experiments and data points show the mean and standard deviations. The X axis indicates the peptide concentration in μg/ml and the Y axis indicates the % cell viability. The cytotoxicity of V2 dimer were tested against human conjunctival cells according to the method described in WO 2007/126392 and compared with native hBD3. […] Wildtype hBD3 was cytotoxic at concentrations of about 15 μg/ml, however, the V2 dimer was not cytotoxic at concentrations of 100 μg/ml.

[26] = MHB 1/6 strength, 35° C., 16 to 20 hours
[27] = Clinical PAE 239 DM5790/07 Source: Wound
[28] = Clinical PAE 230 DR4877/07 Source: Sputum

Gentamicin
MIC [1, 26]: 25 µg/mL
MIC [2, 26]: 12.5 µg/mL
MIC [3, 26]: 0.78 µg/mL
MIC [4, 26]: 400 µg/mL
Log Reduction ([5]; 3.125 ug/ml): 3.02
Log Reduction ([5]; 6.25 ug/ml): 3.07
Log Reduction ([5]; 12.5 ug/ml): 3.03
Log Reduction ([5]; 25.0 ug/ml): 3.04
Log Reduction ([5]; 50.0 ug/ml): 3.31
Log Reduction ([6]; 3.125 ug/ml): >4.61
Log Reduction ([6]; 6.25 ug/ml): >4.61
Log Reduction ([6]; 12.5 ug/ml): >4.61
Log Reduction ([6]; 25.0 ug/ml): >4.61
Log Reduction ([6]; 50.0 ug/ml): >4.61
Log Reduction ([7]; 3.125 ug/ml): 0.22
Log Reduction ([7]; 6.25 ug/ml): 0.35
Log Reduction ([7]; 12.5 ug/ml): 0.65
Log Reduction ([7]; 25.0 ug/ml): 0.54
Log Reduction ([7]; 50.0 ug/ml): 0.39
Log Reduction ([8]; 3.125 ug/ml): >4.33
Log Reduction ([8]; 6.25 ug/ml): >4.33
Log Reduction ([8]; 12.5 ug/ml): >4.33
Log Reduction ([8]; 25.0 ug/ml): >4.33
Log Reduction ([8]; 50.0 ug/ml): >4.33
Log Reduction ([9]; 3.125 ug/ml): 3.66
Log Reduction ([9]; 6.25 ug/ml): 3.76
Log Reduction ([9]; 12.5 ug/ml): 3.88
Log Reduction ([9]; 25.0 ug/ml): 4.18
Log Reduction ([9]; 50.0 ug/ml): 4.57
Log Reduction ([10]; 3.125 ug/ml): 2.28
Log Reduction ([10]; 6.25 ug/ml): 2.41
Log Reduction ([10]; 12.5 ug/ml): 2.50
Log Reduction ([10]; 25.0 ug/ml): 2.60
Log Reduction ([10]; 50.0 ug/ml): 2.63

CC(C)[C@H](NC(=O)[C@H](CCCCN)NC(=O)[C@H](CCCNC(=N)N)NC(=O)CNC(=O)[C@@H](N)CCCNC(=N)N)C(=O)N[C@H](C(=O)N[C@@H](CCCNC(=N)N)C(=O)N[C@@H](CCCNC(=N)N)C(=O)NCCCC[C@H](NC(=O)[C@H](CCCNC(=N)N)NC(=O)[C@H](CCCNC(=N)N)NC(=O)[C@@H](NC(=O)[C@@H](NC(=O)[C@H](CCCCN)NC(=O)[C@H](CCCNC(=N)N)NC(=O)CNC(=O)[C@@H](N)CCCNC(=N)N)C(C)C)C(C)C)C(=O)N[C@@H](CCCCN)C(=O)O)C(C)C [V2 dimer, (SEQ ID NO: 44)2KK] (I: H-RGRKVVRRKK-OH / II: H-RGRKVVRR; amide I:9-II:C)
Minimum inhibitory concentration (MIC) (Kp ATCC 10031): 1.4 µM (≈ 3.21 µg/mL)
MIC [11]: 6.25 µg/mL (≈ 2.73 µM)
MIC [12]: 12.5 µg/mL (≈ 5.46 µM)
MIC [13]: 6.25 µg/mL (≈ 2.73 µM)
MIC [14]: 12.5 µg/mL (≈ 5.46 µM)
MIC [15]: 6.25 µg/mL (≈ 2.73 µM)
MIC [16]: 12.5 µg/mL (≈ 5.46 µM)
MIC [17]: 12.5 µg/mL (≈ 5.46 µM)
MIC [18]: 12.5 µg/mL (≈ 5.46 µM)
MIC [1, 27]: 12.5 µg/mL (≈ 5.46 µM)
MIC ([2]; Methicillin-resistant DM09808R Source: Eye): 12.5 µg/mL (≈ 5.46 µM)
MIC [19]: 25 µg/mL (≈ 10.9 µM)
MIC ([3]; Clinical DB16027 Source: Blood): 6.25 µg/mL (≈ 2.73 µM)
MIC [20]: 12.5 µg/mL (≈ 5.46 µM)
MIC [21]: 12.5 µg/mL (≈ 5.46 µM)
MIC [22]: 12.5 µg/mL (≈ 5.46 µM)
MIC [23]: 12.5 µg/mL (≈ 5.46 µM)
MIC [4, 28]: 12.5 µg/mL (≈ 5.46 µM)
MIC [24]: 12.5 µg/mL (≈ 5.46 µM)
cytotoxicity in comparison with native hBD3 [25]: does not show cytotoxicity

GIINTLQKYYCRVRGGRCAVLSCLPKEEQIGKCSTRGRKCCRRKK (Homo sapien) [Wildtype hBD3, reference compound]
concentration at which cytotoxic [25]: about 15 μg/ml

N=C(N)NCCC[C@H](NC(=O)[C@H](CCCNC(=N)N)NC(=O)[C@H](Cc1c[nH]c2ccccc12)NC(=O)[C@H](Cc1c[nH]c2ccccc12)NC(=O)[C@H](CCCCN)NC(=O)[C@H](CCCNC(=N)N)NC(=O)CNC(=O)[C@@H](N)CCCNC(=N)N)C(=O)O [W2-8AA, RGRKWWRR] (H-RGRKWWRR-OH; N-terminus and C-terminus assumed)
MIC [11]: 50 µg/mL (≈ 41.7 µM)
MIC [12]: 12.5 µg/mL (≈ 10.4 µM)
MIC [13]: 6.25 µg/mL (≈ 5.21 µM)
MIC [14]: 50 µg/mL (≈ 41.7 µM)
MIC [15]: 12.5 µg/mL (≈ 10.4 µM)
MIC [16]: 12.5 µg/mL (≈ 10.4 µM)
MIC [18]: >50 µg/mL
MIC [1, 27]: >50 µg/mL
MIC [19]: 25 µg/mL (≈ 20.8 µM)
MIC ([3]; Clinical DB16027 Source: Blood): 6.25 µg/mL (≈ 5.21 µM)
MIC [20]: 25 µg/mL (≈ 20.8 µM)
MIC [21]: 12.5 µg/mL (≈ 10.4 µM)
MIC [22]: 25 µg/mL (≈ 20.8 µM)
MIC [4, 28]: >50 µg/mL
MIC [24]: 12.5 µg/mL (≈ 10.4 µM)
